From PubChem BioAssay (NCI) come the findings set out here.

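Cells were grown in 96-well plates and exposed to each compound for 48 hours at five concentrations; endpoints were interpolated linearly between bracketing concentrations, or set to the highest concentration if not reached. At the TGI there is no net growth.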

Common to all, as to experiment: NCI tumour cell line growth inhibition, 48 h
In experiment [1] the test system is HCT-116 colon.
For experiment [2], the system named is COLO 205 colon.
For experiment [3], the system named is HS 578T breast.
The subject of experiment [4] is MDA-N.
Experiment [5] has as its system M14 melanoma.
Experiment [6] deals with HCT-15 colon.
Experiment [7] concerns MDA-MB-435.
The test system of experiment [8] is HOP-92 NSCLC.
Experiment [9] has as its system CCRF-CEM leukemia.
The test system of experiment [10] is SW-620 colon.

As for `NCCCNCCCCN1CC1`, the TGI in experiment [1] was over 100 µM; in experiment [2], 4.06 µM; in [3] it was 66.5 µM; in experiment [4] it was over 100 µM; in experiment [5], over 22.6 µM; in [6] it was over 33.2 µM. Besides, the TGI was over 100 µM in [7] and 4.91 µM in experiment [8].
For `COc1cc(Br)c(CC2C3=C(CCN2C(=O)C2CCC2)CC(=O)CC3)cc1O` (configuration not stated), the TGI in experiment [9] is 87.6 µM; in experiment [10] it was over 100 µM; in [1], over 100 µM; in [2] it was 40 µM; in [3], 85.5 µM; in experiment [4] it was 45 µM. Moreover, the TGI in [5] was over 100 µM; in experiment [6], 47.5 µM; in experiment [7], 35.7 µM; in [8], 53.6 µM.
As for `O=C1C(=Cc2ccc(Cl)c(Cl)c2)C([O-])=C([P+](c2ccccc2)(c2ccccc2)c2ccccc2)C([O-])=C1[P+](c1ccccc1)(c1ccccc1)c1ccccc1`, the TGI amounted to 5.6 µM in experiment [9]; 6.75 µM in [10]; 3.73 µM in experiment [1]; 3.28 µM in [2]; 12.7 µM in experiment [3]; 3.77 µM in experiment [4]. For the same compound, the TGI in [5] turned out to be 6.66 µM; in [6] it was 13.8 µM; in [7], 5.59 µM; in experiment [8] it was 4.86 µM.
Turning to `CN(Cc1cc(Cl)c(Cl)cc1NC(=O)CN)[C@H]1CCCC[C@@H]1N1CCCC1`, the TGI in [9] is over 100 µM; in experiment [10] it was over 100 µM; in [1], 45.2 µM; in experiment [2], 33.9 µM; in experiment [3], 58.5 µM; in [4] it was 31.4 µM. Also, the figures for the TGI in experiment [5], in experiment [7] and in experiment [8] were 33.2 µM, 32.9 µM and over 100 µM, respectively.
As to `CC(=O)/C(=C/N1CCNC1=S)C(=O)Nc1ccccc1C`, the TGI in [9], in [10], in [1], in experiment [2], in experiment [3] and in experiment [4] was over 100 µM throughout. Further, the TGI in [5], in experiment [6], in experiment [7] and in experiment [8] was over 100 µM throughout.
With `S=c1[nH]c2ccc(I)cc2c(=S)n1Cc1ccccc1`, the TGI in experiment [9] is 6.06 µM; in experiment [10] it was 14.7 µM; in experiment [1], 13.2 µM; in [2], 25.2 µM; in experiment [3], over 100 µM; in experiment [4], 56.9 µM. The TGI in experiment [5] is 31.6 µM; in experiment [6], 23.3 µM; in experiment [7], over 100 µM; in experiment [8], 9.34 µM.
On to `N#CC(C#N)=C1C(=O)NC(N)=C1C#N`, for which the TGI in [9], in experiment [10], in [1], in [2], in experiment [3] and in experiment [4] was over 100 µM each time. The TGI in experiment [5], in experiment [6], in [7] and in experiment [8] was over 100 µM each time.
With `COc1ccc(N2NC(c3ccccc3)(c3ccccc3)C(C)C2=O)cc1` (configuration not stated), the TGI was over 100 µM in [9]; over 100 µM in [10]; over 100 µM in experiment [1]; 34 µM in [2]; over 100 µM in experiment [3]; over 100 µM in [4]. For the same compound, the TGI in experiment [5], in experiment [6], in [7] and in experiment [8] was over 100 µM throughout.
As to `CCCCCCCCCCCCCC(=O)N(CCCCCCCCC)CC(O)C(O)C(OC1OC(CO)C(O)C(O)C1O)C(O)CO` (configuration not stated), the TGI is 45.4 µM in experiment [9]; 36.5 µM in [10]; 32.1 µM in experiment [1]; 37.3 µM in experiment [2]; 51.9 µM in experiment [3]; 38.1 µM in [4]. Further, the TGI in experiment [5] was 40.8 µM; in experiment [6], 49.7 µM; in experiment [7] it was 34.6 µM; in [8], 34 µM.
In the case of `CCOc1ccc2c(c1)c(=O)c1c(NCCN(CC)CC)ccc3nnn2c31`, the TGI in experiment [9] is 25.7 µM; in experiment [10], 31.5 µM; in [1], over 44.9 µM; in [2], over 54 µM; in [3] it was over 100 µM; in [4] it was 35.7 µM. Further, the TGI is over 54.8 µM in experiment [5], 48.2 µM in [6], 32.5 µM in [7] and over 100 µM in experiment [8].
In the case of `CNc1ncnc2c1cnn2Cc1cn(COCC(O)CO)nn1` (configuration not stated), the TGI is over 100 µM in [9]; over 100 µM in experiment [10]; over 100 µM in experiment [1]; over 100 µM in experiment [2]; 20.3 µM in experiment [3]; over 100 µM in experiment [4]. Besides, the TGI in experiment [5], in experiment [6], in experiment [7] and in experiment [8] was over 100 µM throughout.
`CC1=C(C)C(=O)C(C2=CC(=O)C=CC2=O)=C(C2=CC(=O)C=CC2=O)C1=O`: the TGI in experiment [9] was over 100 µM; in experiment [10], over 76.2 µM; in experiment [1] it was over 79.2 µM; in experiment [2] it was over 100 µM; in experiment [3], over 100 µM; in experiment [4] it was over 59.3 µM. The TGI was over 100 µM in [5], over 100 µM in experiment [6], over 83.7 µM in [7] and over 78.9 µM in [8].
For the compound `CCOC(=O)/C=C(\C(=O)OCC)n1ccc(=O)[nH]c1=O`, the TGI in experiment [9] came to 6.2 µM; in [10] it was 7.85 µM; in [1] it was 19.6 µM; in experiment [2] it was 8.24 µM; in [3], 99.8 µM; in [4] it was 51.3 µM. Moreover, the TGI in experiment [5] stood at 31.4 µM; in experiment [6] it was 21.5 µM; in experiment [7], 38 µM; in experiment [8], 9.04 µM.
